The values that follow come from EP4512806A1, “MOLECULAR GLUE DEGRADERS AND USES THEREOF” (Mablink Bioscience, priority 2023, dated 2025).

Series [1] relates to BT-474. Put plainly: In vitro cytotoxicity assay (MTT). In kind it is cell-based, human. The note with it: 6 days incubation. An excerpt: (§1) Human cancer cell lines used in the present project were purchased from either the American Type Culture Collection (ATCC), The Leibniz Institute DSMZ German Collection of Microorganisms and Cell Cultures GmbH (DSMZ) or the European Collection of Authenticated Cell Cultures (ECACC). For use in experiments, cells were cultivated following good and established cell culture practices, following instructions from the original ATCC/DSMZ/ECACC supplier for cell culture media & supplement, cryopreservation, and subculturing procedures. Cells were incubated under a 5% CO2 atmosphere at 37°C for no longer than 2 months.
(§2) In vitro cytotoxicity of compounds of the disclosure was assessed on several cancerous human cell lines. Cells were plated in 96-well plates at an appropriate density depending on the cell line (between 1000 and 10 000 cells/well in 100µL of appropriate culture media) and incubated at 37°C for 24 hours. Serial dilutions of the tested compound previously dissolved in culture media (50µL) were added, and incubation was carried at 37°C out for 6 days. MTT (5mg/mL in PBS, 20µL, Sigma-Aldrich) was added into the wells, and incubation was continued for 1 to 4 hours at 37°C. Culture media was then carefully removed, and well content was homogeneously dissolved with acidified isopropanol. Absorbance values were measured on a microplate reader using a wavelength of 570 nm (with a reference wavelength of 690 nm). The IC50 concentration values compared to untreated control cells were determined using inhibition dose response curve fitting (GraphPad Prism 9). Exatecan mesylate (cat#HY-13631A) and CR8 (CAS# 294646-77-8; cat#HY-18340) were purchased from MedChemExpress (China).

Series [2] concerns JIMT-1. Put plainly: In vitro cytotoxicity assay (MTT). In kind it is cell-based, human. Particulars: 6 days incubation.
Text: as §1, §2

The test system of series [3] is MDA-MB-231. Put plainly: In vitro cytotoxicity assay (MTT). In kind it is cell-based, human. Particulars: 6 days incubation.
Text: as §1, §2

Series [4] relates to MDA-MB-453. Put plainly: In vitro cytotoxicity assay (MTT). In kind it is cell-based, human. The note with it: 6 days incubation.
Text: as §1, §2

Series [5] relates to NCI-N87. Put plainly: In vitro cytotoxicity assay (MTT). In kind it is cell-based, human. The note with it: 6 days incubation.
Text: as §1, §2

The subject of series [6] is SKBR-3. Put plainly: In vitro cytotoxicity assay (MTT). In kind it is cell-based, human. The note with it: 6 days incubation.
Text: as §1, §2

For series [7], the target named is T1, CycK (Homo sapiens, UniProt O75909).
T1 construct: endogenous in cells; host or cells: JIMT-1
Put plainly: CycK protein quantification by Western Blot in JIMT-1 cells. In kind it is cell-based. Particulars: 2h treatment, 10nM. The procedure: 1×10^6 JIMT-1 cells were plated in 3mL of DMEM/FBS 90:10 (v/v) in 6-well plates and incubated overnight. Cells were treated with the compound 2384 of the invention with or without the proteasome inhibitor MG-132 (MedChemExpress, Cat HY-13259) for 2h. Cells were harvested, and protein were extracted using complete RIPA buffer (RIPA buffer, 1 mM DTT, 1M NaF, 100 mM sodium orthovanadate, phosphatase inhibitor buffer and protease inhibitors) for 1 hour on ice. Lysate were centrifuged 15min at 12 000g at 4°C. and proteins were mixed with 4x Laemmli Sample Buffer (Bio-Rad), heated at 95 °C for 5 mins and separated by SDS PAGE (PROTEAN TGX Stain-Free Gels, Bio-Rad). Proteins were then transferred onto PVDF membrane (iBlot®2 PVDF stacks, Invitrogen) using the iBlot2 device (Invitrogen) and blocked with TBS buffer (Intercept® Blocking Buffer, LI-COR Biosciences). Primary antibodies were incubated overnight at 4°C and secondary antibodies (IRDye Infrared Dyes from LI-COR Biosciences) 1 hour at room temperature. Used primary antibody were: anti-CycK (cat#A301-939A, Bethyl Laboratories, dil. 1:1000) and anti-β-actin (cat#A5441, Sigma-Aldrich, dil. 1:5000). Membranes were scanned using a c500 Imaging System (Azure Biosystems) and densitometric quantification were performed using imaged software. Protein levels were normalized against β-actin.

Series [8] concerns JIMT-1 cells. Put plainly: Cell cycle arrest assessment (propidium iodide, flow cytometry). In kind it is cell-based, human. The method, then: 1×10^6 JIMT-1 cells were plated in 3mL of DMEM/FBS 90:10 (v/v) in 6-well plates and incubated overnight. Cells were treated with the compound 2384 of the invention or with CR8 for 24h. Cells were then harvested and washed three times with PBS. Cells were suspended into 300µL of propidium iodide working solution (0.05mg/mL) and incubated for 45 minutes at 4°C in the dark. Analysis was performed using a BD Fortessa flow cytometer controlled by BD FACSDiva software (BD Biosciences) and data were analyzed using FlowJo software (BD Bioscience).

Series [9] concerns panel of human cancer cell lines. Put plainly: In vitro cytotoxicity assay (MTT), panel of cell lines. Particulars: panel of human cancer cell lines, in words. In kind it is cell-based.
Text: as §1, §2

T1 sequence (O75909 whole entry): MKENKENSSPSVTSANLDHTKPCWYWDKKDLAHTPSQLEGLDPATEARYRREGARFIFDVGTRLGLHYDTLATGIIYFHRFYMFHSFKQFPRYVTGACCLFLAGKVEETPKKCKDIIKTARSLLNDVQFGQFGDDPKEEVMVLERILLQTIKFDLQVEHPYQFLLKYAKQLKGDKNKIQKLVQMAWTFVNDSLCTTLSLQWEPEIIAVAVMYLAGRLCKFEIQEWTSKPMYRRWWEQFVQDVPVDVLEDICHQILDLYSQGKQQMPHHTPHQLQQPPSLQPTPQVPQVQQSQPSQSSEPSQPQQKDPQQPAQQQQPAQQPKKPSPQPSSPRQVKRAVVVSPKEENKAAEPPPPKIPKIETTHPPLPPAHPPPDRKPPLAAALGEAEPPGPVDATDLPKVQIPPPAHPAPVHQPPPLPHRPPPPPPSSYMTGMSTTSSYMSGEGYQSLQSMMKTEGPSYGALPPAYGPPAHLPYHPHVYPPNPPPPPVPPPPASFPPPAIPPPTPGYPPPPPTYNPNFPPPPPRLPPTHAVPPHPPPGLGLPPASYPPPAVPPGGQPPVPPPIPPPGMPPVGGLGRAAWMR
T1 sequence (Q9NYV4 whole entry partner): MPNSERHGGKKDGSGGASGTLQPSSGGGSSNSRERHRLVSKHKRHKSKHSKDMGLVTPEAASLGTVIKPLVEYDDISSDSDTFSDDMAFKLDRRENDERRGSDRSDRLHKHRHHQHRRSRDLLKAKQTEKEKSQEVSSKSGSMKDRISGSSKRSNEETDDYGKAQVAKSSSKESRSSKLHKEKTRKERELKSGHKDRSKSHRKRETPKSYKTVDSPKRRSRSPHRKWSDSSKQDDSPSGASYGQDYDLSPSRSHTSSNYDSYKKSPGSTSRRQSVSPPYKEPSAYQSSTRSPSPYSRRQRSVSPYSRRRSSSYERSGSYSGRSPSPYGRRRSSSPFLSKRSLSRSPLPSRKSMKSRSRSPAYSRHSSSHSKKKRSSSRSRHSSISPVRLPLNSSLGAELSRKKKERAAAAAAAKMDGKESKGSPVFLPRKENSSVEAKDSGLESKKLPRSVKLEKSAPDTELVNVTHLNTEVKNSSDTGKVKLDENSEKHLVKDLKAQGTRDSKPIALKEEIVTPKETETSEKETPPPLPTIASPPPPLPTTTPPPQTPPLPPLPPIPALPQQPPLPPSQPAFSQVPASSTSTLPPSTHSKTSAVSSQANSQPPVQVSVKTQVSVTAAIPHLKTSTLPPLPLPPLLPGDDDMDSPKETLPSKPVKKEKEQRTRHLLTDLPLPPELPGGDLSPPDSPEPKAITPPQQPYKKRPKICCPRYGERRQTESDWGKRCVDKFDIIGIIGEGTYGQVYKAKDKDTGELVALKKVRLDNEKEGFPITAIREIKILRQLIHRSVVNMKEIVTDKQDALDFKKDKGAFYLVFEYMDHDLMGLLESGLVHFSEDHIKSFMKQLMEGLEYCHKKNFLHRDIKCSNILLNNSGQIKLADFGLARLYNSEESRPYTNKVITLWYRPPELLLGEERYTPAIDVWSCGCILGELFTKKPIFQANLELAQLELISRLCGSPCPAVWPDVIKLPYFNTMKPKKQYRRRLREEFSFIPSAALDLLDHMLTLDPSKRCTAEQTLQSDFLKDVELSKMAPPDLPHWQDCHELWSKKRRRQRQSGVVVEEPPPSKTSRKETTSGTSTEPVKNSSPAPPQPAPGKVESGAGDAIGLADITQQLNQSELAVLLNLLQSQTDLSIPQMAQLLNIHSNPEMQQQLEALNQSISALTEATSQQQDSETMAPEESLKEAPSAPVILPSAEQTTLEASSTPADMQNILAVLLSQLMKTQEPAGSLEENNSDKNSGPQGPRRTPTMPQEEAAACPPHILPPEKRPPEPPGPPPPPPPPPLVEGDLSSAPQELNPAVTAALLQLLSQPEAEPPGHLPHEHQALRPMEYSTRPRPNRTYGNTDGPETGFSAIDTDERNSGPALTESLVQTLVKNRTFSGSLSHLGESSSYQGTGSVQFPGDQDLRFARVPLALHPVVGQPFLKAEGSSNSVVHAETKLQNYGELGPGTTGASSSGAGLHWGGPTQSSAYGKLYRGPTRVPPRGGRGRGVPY
T1 sequence (Q16531 whole entry partner): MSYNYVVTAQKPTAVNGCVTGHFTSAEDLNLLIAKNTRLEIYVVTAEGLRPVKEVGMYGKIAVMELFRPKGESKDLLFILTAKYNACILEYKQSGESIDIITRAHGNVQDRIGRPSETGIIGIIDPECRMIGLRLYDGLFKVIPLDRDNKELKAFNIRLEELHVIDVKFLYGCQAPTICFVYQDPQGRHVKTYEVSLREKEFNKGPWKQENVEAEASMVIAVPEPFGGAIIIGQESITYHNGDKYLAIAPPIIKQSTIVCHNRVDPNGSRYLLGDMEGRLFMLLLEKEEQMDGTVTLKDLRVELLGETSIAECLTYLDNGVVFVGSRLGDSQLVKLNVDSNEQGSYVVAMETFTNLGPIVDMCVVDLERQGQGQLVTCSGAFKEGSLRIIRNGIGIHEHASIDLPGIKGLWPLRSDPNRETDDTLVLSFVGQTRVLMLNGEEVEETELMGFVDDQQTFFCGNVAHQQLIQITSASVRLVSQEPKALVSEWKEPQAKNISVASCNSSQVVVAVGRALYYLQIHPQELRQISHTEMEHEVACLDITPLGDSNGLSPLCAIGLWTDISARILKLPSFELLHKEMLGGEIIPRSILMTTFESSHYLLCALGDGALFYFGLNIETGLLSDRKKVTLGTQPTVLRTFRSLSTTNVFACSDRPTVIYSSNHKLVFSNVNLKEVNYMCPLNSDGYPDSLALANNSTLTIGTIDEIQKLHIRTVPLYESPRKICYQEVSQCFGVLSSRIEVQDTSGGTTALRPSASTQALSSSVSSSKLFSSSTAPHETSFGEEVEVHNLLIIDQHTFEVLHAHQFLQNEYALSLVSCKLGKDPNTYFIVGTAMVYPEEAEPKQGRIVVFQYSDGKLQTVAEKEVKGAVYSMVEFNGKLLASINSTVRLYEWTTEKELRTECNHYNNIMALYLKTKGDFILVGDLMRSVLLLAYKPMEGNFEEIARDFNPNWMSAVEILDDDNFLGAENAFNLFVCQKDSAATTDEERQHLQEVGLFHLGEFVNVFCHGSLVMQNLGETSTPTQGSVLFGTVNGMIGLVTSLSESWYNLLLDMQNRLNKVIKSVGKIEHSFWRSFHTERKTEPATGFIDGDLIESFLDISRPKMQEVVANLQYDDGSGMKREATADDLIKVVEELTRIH

`CC[C@H](CO)Nc1nc(NCc2ccc(-c3ccccn3)cc2)c2ncn(C(C)C)c2n1` [CR8, reference compound]: the IC50 in [1] was 18.4 nM; in series [2] it was 25.2 nM; in [3], 10.4 nM; in series [4], 40.3 nM; in series [5] it was 62.2 nM; in series [6] it was 30.6 nM. Further, the CycK degradation entry in series [7] was “no CycK was observed”. In addition, the “cell cycle analysis (propidium iodide)” value is reported as “arrest in G2/M phase” in series [8] (24h, 50 nM); “no impact on cell cycle” in series [8] (24h, 2, 5, and 10 nM). Moreover, the “in vitro cytotoxic potency” value in series [9] is given as “high nanomolar range”.
